Laboratory results from ChEMBL document CHEMBL1201862, “PubChem BioAssay data set” (2004).
The source made the active and inactive calls.

Tests used:
[1] = Trypanosoma cruzi growth suppression in host cells – NIH3T3 host cells, beta-gal luminescence, confirmation (AID 2044); assay type: functional, cell-based;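 also: intracellular parasites grown in NIH/3T3 mouse fibroblasts as host cells; luminescent beta-galactosidase reporter signal from transgenic T. cruzi replicating inside host cells; inhibitors lower the luminescence signal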
[2] = NIH3T3 cell viability loss – ATP luminescence, mouse fibroblasts, counter-screen, dose response (AID 2010); assay type: functional, cell-based;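 also: cells exposed to compound for about 90 hours before reading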
[3] = target: Glyceraldehyde-3-phosphate dehydrogenase (Homo sapiens, UniProt P04406)
Bcl-2-related protein A1 [4] = target: T1, Bcl-2-related protein A1 (Mus musculus, UniProt Q07440); assay: small-molecule antagonists of Bfl-1/BH3 interaction – biochemical, TR-FRET, mouse Bfl-1, confirmation (AID 621);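 also: TR-FRET binding of GST-Bfl-1 to FITC-labelled Bid peptide via terbium antibody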
T1 sequence (Q07440 whole entry): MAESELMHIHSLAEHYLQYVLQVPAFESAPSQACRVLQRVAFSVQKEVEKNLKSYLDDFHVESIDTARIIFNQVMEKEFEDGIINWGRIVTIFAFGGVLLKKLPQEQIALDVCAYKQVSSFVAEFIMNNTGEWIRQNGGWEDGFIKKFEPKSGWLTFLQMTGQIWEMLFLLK

Bcl-2-related protein A1 [5] = target: T1, Bcl-2-related protein A1; assay: Bfl-1 binding inhibitors, SAR follow-up, biochemical, fluorescence polarization (AID 1070)
Ephrin type-A receptor 4 = Ephrin type-A receptor 4 (Mus musculus, UniProt Q03137); assay: EphA4 ligand-binding antagonists – biochemical, colorimetric, mouse EphA4, primary screen (AID 689); assay type: functional
[6] = target: E3 ubiquitin-protein ligase Mdm2 (Homo sapiens, UniProt Q00987); assay: MDM2-luc reporter signal enhancers, multi-concentration potency testing, MDM2 ubiquitin-protein ligase inhibitor program, whole-cell format, luminescence detection, 384-well microplate (AID 1394); assay type: functional;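 also: MDM2 E3 inhibitors raise luminescence so EC50 is for signal enhancement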
[7] = reduction of Shn3 3'UTR-driven luciferase in osteoblasts – cell-based, Clone20 osteoblasts, firefly luciferase, cherry-picked, dose response (AID 624132); assay type: functional;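 also: firefly luciferase luminescence from reporter carrying the Shn3 3'UTR in osteoblasts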
[8] = loss of viability in HepG2 cells – cell-based, CellTiter-Glo, cherry-picked, cytotoxicity control for Shn3 inhibitor project, dose response (AID 624134); assay type: functional
[9] = non-specific 3'UTR reporter inhibition in Clone20-Shn3RL – cell-based, Renilla luciferase, cherry-picked, counter-screen for Shn3 inhibitor project, dose response (AID 624133); assay type: functional
[10] = target: Sphingosine 1-phosphate receptor 2 (Homo sapiens, UniProt O95136); assay: Dose Response Cell Based Assay for Antagonists of the S1P2 Receptor. [Related pubchem assays: 856, 736 ]; assay type: functional
[11] = target: T2, Heat shock factor protein 1 (Mus musculus, UniProt P38532); assay: decrease of HSF1-responsive luciferase luminescence – cell-based, NIH3T3, dose retest, confirmation (AID 2382); assay type: functional;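 also: NIH3T3 fibroblasts with HSF1-driven luciferase reporter stressed by proteasome inhibitor MG132; luminescence from HSF1-driven luciferase expression after 8 hours of MG132 stress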
T2 sequence (P38532 whole entry): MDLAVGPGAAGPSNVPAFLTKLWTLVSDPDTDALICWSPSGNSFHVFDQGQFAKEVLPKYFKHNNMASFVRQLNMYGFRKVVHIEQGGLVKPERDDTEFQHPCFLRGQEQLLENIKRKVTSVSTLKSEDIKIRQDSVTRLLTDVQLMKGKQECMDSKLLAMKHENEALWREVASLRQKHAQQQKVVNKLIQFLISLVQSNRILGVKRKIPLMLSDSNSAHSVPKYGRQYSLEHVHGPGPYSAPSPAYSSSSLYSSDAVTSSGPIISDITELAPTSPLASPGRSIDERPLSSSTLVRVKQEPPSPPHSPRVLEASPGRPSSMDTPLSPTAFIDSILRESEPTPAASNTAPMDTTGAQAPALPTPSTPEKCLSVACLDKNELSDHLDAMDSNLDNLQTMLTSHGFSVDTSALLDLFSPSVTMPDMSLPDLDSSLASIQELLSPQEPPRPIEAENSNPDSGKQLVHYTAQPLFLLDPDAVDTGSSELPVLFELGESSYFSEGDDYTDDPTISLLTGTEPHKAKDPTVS

[12] = HPDE-C7 pancreatic duct cell viability loss – fluorescence, HTS (AID 430); assay type: functional, cell-based; details: Homo sapiens
[13] = viability loss of HPDE-C7K cells – cell-based, fluorescence, HTS, primary screen (AID 431); assay type: functional; details: Homo sapiens
CAAX prenyl protease 2 = target: T3, CAAX prenyl protease 2 (Saccharomyces cerevisiae S288c, UniProt Q03530); assay type: biochemical
T3 sequence (Q03530 whole entry): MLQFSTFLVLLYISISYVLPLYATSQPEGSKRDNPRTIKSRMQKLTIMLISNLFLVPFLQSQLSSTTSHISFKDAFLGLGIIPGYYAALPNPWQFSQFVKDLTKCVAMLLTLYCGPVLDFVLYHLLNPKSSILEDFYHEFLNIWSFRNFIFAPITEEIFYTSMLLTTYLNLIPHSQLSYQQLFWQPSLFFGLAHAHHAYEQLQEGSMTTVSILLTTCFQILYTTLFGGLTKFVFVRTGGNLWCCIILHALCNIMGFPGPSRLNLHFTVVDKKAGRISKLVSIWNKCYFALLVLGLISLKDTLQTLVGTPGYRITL

[14] = Luminescence Cell-Based Dose Confirmation HTS to Identify Activators of 5'UTR Stem-Loop Driven Alpha-Synuclein mRNA Translation in H4 Neuroglioblastoma Cells. [Related pubchem assays: 1829 (Project Summary), 1814 (Primary HTS)]; assay type: functional
[15] = Luminescence Cell-Based Dose Response HTS to Identify Activators of Luciferase Translation or Activity in H4 […] Cells. [Related pubchem assays: 1829 (Project Summary), 1814 (Primary HTS)]; assay type: functional
H4 = assay: Luminescence Cell-Based Dose Response HTS to Identify Activators of 5'UTR Stem-Loop Driven Prion Protein mRNA Translation in H4 Neuroglioblastoma Cells. [Related pubchem assays: 1829 (Project Summary), 1814 (Primary HTS)]; assay type: functional; details: Homo sapiens
[16] = target: Voltage-gated inwardly rectifying potassium channel KCNH2 (Homo sapiens, UniProt Q12809); assay: concentration-dependent hERG rescue from blockers – cell-based, thallium flux, dose response (AID 2121); assay type: ADME
[17] = target: Heat shock protein HSP 90-alpha (Homo sapiens, UniProt P07900); assay type: functional, organism-based
Aminopeptidase N = target: T4, Aminopeptidase N (Plasmodium falciparum FcB1/Columbia, UniProt O96935); assay: malaria alanyl aminopeptidase activity blockers – biochemical, fluorogenic H-Leu-NHMec substrate, 1536-well (AID 1445); parameters: species or system Plasmodium falciparum 3D7, 3D7
T4 sequence (O96935 whole entry): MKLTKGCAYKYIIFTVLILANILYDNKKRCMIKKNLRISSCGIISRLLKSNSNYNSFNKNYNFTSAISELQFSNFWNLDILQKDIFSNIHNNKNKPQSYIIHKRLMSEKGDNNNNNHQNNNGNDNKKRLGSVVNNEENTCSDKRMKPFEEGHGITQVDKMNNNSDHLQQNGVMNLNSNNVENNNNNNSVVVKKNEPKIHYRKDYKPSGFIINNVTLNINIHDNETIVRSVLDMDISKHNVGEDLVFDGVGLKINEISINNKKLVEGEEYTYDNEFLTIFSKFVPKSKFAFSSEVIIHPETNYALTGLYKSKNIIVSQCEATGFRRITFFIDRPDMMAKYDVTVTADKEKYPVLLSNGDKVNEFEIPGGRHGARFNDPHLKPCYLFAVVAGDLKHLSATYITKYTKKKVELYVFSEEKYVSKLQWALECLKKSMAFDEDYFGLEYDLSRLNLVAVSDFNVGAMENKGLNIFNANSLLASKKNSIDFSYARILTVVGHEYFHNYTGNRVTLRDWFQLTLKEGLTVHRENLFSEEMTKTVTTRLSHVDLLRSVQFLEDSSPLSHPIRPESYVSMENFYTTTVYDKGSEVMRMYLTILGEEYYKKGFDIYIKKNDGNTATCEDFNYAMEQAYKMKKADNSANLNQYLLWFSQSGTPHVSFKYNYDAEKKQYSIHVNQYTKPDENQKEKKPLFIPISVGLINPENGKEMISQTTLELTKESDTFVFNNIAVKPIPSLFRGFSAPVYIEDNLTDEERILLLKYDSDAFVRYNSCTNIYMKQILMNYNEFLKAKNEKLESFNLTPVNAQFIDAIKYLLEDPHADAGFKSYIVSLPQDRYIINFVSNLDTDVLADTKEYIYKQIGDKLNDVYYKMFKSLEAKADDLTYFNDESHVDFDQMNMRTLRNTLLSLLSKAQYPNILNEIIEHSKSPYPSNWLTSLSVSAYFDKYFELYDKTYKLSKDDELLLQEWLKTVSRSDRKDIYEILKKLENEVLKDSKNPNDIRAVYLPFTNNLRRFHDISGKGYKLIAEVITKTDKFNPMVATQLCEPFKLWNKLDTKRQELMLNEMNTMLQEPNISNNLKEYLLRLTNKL

[18] = tested on: Streptococcus sp. 'group A'; assay: Streptococcus pyogenes SK(-)GAS viability under kanamycin – luminescence, BacTiterGlo, confirmation, counter-screen for streptokinase expression inhibitor project, dose response (AID 1900); assay type: functional, organism-based
Streptokinase A = target: T5, Streptokinase A (Streptococcus pyogenes serotype M1, UniProt P10520); assay: viability-normalized secreted streptokinase activity reduction – plasminogen activation absorbance, OD405, dose response (AID 1914); assay type: functional, Streptococcus pyogenes M1 GAS;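 also: secreted streptokinase activity via plasminogen activation per viability signal from cell pellet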
T5 sequence (P10520 whole entry): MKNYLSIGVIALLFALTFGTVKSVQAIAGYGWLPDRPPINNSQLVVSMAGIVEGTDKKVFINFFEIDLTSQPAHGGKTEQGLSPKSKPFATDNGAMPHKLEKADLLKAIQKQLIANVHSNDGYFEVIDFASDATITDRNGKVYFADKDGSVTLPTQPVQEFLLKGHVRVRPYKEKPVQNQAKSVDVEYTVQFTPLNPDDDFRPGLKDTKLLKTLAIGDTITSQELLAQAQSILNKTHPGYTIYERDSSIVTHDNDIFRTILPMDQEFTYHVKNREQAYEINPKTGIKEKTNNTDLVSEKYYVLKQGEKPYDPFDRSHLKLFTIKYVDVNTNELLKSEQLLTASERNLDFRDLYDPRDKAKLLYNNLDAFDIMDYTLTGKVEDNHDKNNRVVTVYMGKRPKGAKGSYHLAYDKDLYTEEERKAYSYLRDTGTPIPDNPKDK

[19] = target: Bifunctional protein GlmU (Mycobacterium tuberculosis, UniProt P9WMN3); assay: Inhibitors of Mycobacterial Glucosamine-1-phosphate acetyl transferase (GlmU). Secondary screen.; parameters: species or system Mycobacterium tuberculosis H37Rv
[20] = target: Induced myeloid leukemia cell differentiation protein Mcl-1 (Homo sapiens, UniProt Q07820); assay type: functional
Streptococcus = assay: GAS UMAA2166 growth inhibition – luminescence, BacTiterGlo, counter-screen for streptokinase expression inhibitor project, dose response (AID 1915); assay type: functional, organism-based;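 also: potency for reduction of bacterial viability or growth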
[21] = target: T6, Probable nicotinate-nucleotide adenylyltransferase (Staphylococcus aureus (strain N315), UniProt P65502); assay type: functional, Staphylococcus aureus subsp. aureus N315;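 as to IC50 Mean: confirmatory dose-response retesting of NadD inhibitor hits first found in an ultra-high-throughput screen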
[22] = target: T6, Probable nicotinate-nucleotide adenylyltransferase; assay type: functional, Staphylococcus aureus subsp. aureus N315; details: read-out: IC50_Mean

Glyceraldehyde-3-phosphate dehydrogenase, sequence (P04406 whole entry): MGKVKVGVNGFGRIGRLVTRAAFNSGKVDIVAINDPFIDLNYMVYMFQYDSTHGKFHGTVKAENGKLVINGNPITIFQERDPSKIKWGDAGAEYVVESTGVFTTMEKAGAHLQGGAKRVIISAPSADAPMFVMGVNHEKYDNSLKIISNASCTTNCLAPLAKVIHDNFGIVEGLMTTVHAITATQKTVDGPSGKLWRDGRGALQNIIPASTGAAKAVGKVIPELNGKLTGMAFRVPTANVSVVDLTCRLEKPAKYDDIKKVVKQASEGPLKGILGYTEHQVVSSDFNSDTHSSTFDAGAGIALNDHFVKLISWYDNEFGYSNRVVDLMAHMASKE
T6 sequence (P65502 whole entry): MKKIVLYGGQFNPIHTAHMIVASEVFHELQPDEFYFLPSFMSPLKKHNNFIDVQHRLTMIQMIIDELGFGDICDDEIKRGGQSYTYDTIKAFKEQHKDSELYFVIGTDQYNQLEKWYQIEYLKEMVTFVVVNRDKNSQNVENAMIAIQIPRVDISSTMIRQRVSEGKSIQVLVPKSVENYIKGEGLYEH
E3 ubiquitin-protein ligase Mdm2, sequence (Q00987 whole entry): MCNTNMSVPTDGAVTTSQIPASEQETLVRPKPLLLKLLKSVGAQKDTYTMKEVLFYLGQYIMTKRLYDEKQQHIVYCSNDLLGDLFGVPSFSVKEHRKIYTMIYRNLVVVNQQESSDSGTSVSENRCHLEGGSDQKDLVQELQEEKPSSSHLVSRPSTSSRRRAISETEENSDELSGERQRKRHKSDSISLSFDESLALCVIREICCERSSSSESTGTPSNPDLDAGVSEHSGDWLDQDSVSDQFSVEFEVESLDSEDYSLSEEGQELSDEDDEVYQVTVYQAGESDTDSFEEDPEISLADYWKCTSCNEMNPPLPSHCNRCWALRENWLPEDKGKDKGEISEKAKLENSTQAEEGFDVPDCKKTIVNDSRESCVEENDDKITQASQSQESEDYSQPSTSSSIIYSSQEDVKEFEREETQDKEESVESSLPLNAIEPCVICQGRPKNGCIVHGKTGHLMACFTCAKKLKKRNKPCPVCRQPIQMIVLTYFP
Voltage-gated inwardly rectifying potassium channel KCNH2, sequence (Q12809 whole entry): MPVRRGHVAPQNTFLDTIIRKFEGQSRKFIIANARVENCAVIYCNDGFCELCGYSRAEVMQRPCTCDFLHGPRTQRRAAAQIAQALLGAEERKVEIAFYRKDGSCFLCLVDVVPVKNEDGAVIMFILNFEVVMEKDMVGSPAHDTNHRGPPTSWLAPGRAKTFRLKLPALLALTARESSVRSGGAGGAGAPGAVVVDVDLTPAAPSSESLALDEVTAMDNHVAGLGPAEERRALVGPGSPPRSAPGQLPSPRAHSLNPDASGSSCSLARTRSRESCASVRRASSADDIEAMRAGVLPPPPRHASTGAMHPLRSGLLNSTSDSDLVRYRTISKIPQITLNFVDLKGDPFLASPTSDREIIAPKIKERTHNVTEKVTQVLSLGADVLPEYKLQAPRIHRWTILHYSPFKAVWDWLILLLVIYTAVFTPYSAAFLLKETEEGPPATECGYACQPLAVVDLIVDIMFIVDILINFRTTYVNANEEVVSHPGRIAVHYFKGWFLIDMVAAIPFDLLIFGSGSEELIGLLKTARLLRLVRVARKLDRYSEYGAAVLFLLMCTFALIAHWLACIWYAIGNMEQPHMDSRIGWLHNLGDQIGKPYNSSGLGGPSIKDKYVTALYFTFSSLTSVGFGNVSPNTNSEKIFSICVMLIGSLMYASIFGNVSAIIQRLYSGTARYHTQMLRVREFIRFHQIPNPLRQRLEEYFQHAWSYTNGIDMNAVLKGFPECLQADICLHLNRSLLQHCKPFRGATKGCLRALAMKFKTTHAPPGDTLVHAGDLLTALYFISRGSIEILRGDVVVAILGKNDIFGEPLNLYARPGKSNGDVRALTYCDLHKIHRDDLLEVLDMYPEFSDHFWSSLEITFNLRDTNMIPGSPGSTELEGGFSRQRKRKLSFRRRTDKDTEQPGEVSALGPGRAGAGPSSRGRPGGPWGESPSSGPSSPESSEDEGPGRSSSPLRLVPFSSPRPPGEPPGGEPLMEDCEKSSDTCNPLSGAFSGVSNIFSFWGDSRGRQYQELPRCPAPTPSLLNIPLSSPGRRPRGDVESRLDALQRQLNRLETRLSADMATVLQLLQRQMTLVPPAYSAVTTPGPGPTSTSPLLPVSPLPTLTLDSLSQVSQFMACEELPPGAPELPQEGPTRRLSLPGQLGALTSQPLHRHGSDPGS
Induced myeloid leukemia cell differentiation protein Mcl-1, sequence (Q07820 whole entry): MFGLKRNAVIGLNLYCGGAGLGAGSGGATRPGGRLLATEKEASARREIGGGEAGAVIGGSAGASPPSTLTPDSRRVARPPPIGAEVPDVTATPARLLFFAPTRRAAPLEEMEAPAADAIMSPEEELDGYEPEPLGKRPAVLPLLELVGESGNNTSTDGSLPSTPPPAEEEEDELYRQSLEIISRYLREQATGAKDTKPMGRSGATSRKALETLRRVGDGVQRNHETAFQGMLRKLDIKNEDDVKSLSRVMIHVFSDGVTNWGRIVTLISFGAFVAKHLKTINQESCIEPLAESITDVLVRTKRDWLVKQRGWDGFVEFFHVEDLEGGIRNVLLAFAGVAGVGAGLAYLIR
Bifunctional protein GlmU, sequence (P9WMN3 whole entry): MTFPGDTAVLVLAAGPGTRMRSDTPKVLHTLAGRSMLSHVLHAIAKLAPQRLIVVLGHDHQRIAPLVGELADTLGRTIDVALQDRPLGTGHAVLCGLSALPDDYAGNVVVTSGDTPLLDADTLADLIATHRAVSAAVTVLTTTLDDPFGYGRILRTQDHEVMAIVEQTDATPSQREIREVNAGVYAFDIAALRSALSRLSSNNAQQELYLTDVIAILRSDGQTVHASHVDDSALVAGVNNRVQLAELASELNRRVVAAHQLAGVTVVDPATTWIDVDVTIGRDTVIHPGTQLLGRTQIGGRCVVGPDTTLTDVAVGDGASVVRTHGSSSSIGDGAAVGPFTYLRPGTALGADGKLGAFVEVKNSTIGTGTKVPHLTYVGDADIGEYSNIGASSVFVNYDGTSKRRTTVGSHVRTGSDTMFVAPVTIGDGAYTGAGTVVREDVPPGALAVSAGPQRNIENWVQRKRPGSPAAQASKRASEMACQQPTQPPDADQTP
Ephrin type-A receptor 4, sequence (Q03137 whole entry): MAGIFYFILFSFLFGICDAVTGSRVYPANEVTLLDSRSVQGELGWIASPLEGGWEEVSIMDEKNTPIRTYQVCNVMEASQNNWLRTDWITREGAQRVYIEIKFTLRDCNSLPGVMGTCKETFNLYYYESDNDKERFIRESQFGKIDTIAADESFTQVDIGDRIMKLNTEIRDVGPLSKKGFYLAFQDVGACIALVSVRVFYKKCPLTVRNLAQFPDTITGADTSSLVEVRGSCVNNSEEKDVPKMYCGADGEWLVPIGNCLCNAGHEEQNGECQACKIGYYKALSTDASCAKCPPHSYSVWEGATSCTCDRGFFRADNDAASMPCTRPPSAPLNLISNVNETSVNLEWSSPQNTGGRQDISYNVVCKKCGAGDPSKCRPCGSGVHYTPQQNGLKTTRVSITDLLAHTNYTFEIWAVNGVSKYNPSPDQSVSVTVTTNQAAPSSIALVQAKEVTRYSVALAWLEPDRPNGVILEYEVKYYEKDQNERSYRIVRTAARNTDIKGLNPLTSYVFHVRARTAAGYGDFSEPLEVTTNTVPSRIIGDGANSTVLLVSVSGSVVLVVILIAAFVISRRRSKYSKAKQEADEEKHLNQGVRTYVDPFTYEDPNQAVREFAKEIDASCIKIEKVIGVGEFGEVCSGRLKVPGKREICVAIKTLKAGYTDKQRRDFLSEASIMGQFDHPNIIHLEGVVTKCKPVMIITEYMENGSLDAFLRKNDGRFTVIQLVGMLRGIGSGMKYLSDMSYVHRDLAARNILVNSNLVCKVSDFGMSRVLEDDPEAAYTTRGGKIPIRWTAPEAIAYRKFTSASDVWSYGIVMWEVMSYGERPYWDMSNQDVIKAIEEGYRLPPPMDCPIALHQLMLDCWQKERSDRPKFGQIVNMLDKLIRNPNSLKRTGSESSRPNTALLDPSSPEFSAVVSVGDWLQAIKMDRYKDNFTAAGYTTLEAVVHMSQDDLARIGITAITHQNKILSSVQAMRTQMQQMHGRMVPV
Sphingosine 1-phosphate receptor 2, sequence (O95136 whole entry): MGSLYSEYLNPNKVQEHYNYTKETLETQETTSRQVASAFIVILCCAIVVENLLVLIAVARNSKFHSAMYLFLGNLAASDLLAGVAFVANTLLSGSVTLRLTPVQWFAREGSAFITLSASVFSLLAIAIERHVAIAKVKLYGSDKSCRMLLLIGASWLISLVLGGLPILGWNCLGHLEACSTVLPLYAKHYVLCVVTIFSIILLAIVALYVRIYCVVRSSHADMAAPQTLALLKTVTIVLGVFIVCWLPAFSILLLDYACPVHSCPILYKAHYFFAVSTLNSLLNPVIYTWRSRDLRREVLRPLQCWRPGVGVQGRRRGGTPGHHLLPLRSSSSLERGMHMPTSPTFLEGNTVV

## COc1ccc(C(=O)OC2CCN(C)CC2)cc1
[1]
  EC50: < 100 nM (active)
[2]
  EC50: > 60 µM (not active)
cells
  EC50: 77 nM (active)

## NCCN1CCN(C2=C(Cl)C(=O)N(c3ccc(Cl)c(Cl)c3)C2=O)CC1
[3]
  IC50: > 100 µM (not active)
Bcl-2-related protein A1 [4]
  IC50: > 100 µM (not active)
Bcl-2-related protein A1 [5]
  IC50: > 100 µM (not active)

## CC1CCCN(c2nc3ccccc3nc2C(C#N)C(=O)OC2CCCCC2)C1 (stereo not given)
Ephrin type-A receptor 4
  IC50: 9.81 µM (active)

## Cc1cc(C)nc(S/C=C/C(=O)c2ccccc2)n1
[6]
  EC50: 1.32 µM (active)
[7]
  AC50: 1.72 µM (active)
[8]
  AC50: 42.4 µM (active)
[9]
  AC50: 9.3 µM (active)

## CCCC(=O)N1CCN(c2ccc(NC(=O)c3cc4ccccc4o3)cc2Cl)CC1
[10]
  IC50: 4.67 µM (active)
[11]
  EC50: 7.51 µM (active)
[12]
  EC50: 7.87 µM (active)
[13]
  EC50: 7.44 µM (active)
CAAX prenyl protease 2
  AC50: 11.5 µM (active)
[7]
  AC50: 4.1 µM (active)
[8]
  AC50: 7.37 µM (active)
[9]
  AC50: 8.96 µM (active)

## O=C1C(Cl)=C(N2CCN(c3ccccc3F)CC2)C(=O)N1c1ccc(Cl)c(Cl)c1
[3]
  IC50: > 100 µM (not active)
Bcl-2-related protein A1 [4]
  IC50: > 100 µM (not active)
Bcl-2-related protein A1 [5]
  IC50: > 100 µM (not active)

## COc1cccc([C@@H]2Oc3ccc(OC)cc3C(=O)[C@H]2OC(=O)NCc2ccc3c(c2)OCO3)c1
[14]
  EC50: 16.3 µM (active)
[15]
  EC50: 16.6 µM (active)
H4
  EC50: 46.4 µM (active)
[16]
  EC50: 4.06 µM (active)

## COc1ccc(N2CCN(C(CNC(=O)Oc3ccccc3)c3cccnc3)CC2)cc1 (stereo not given)
[1]
  EC50: < 100 nM (active)
[2]
  EC50: > 30 µM (not active)
cells
  EC50: 87 nM (active)

## O=C(CCSc1ccc(Br)cc1)c1ccc(O)cc1
[16]
  EC50: 1.17 µM (active)
[17]
  AC50: 1.81 µM (active)

## COc1ccc(C2C(C(=O)N3CCCCC3)CCC(=O)N2c2cc(OC)c(OC)c(OC)c2)cc1 (stereo not given)
[6]
  EC50: 47.1 µM (not active)

## O=C(N/N=C/c1ccc(-c2ccc(Cl)c(C(=O)O)c2)o1)c1cc2c(ccc3ccccc32)o1
Aminopeptidase N
  IC50: 9.45 µM (active)
[18]
  EC50: 3.13 µM (active)
Streptokinase A
  EC50: > 150 µM (not active)
[19]
  IC50: 58.8 µM (active)
[20]
  IC50: 1.55 µM (active)
Streptococcus
  EC50: 66.6 µM (inconclusive)
[21]
  IC50: 3.91 µM (active)
[22]
  IC50: 10.7 µM (active)
